According to patent US4062950A, “Amino sugar derivatives” (priority 1973, dated 1977):
Values joined by “and” are separate entries in the source; they are usually repeats but may differ in a detail not shown here. Equal entries are not always repeated. Where two headings read alike, the source gives them in different places.

Tests used:
[1] = system: maltase; test: In vitro maltase test; format: biochemical, pig; details: Table II
Experimental: One maltase inhibitor unit (MIU) is defined as the amount of inhibitor which inhibits two maltase units to the extent of 50%. One maltase unit (MU) is the amount of enzyme which in one minute, under the test conditions specified below, splits 1 μmol of maltose into 2 μmol of glucose. The μmol of glucose formed are determined quantitatively by means of the glucose oxidase reaction under conditions such that further splitting of maltose by the maltase no longer takes place. To carry out the test, 0.05 ml of solubilized maltase [from the mucous membrane of the small intestine of the pig, according to B. Borgstrom, A, Dahlquist, Acta Chem, Scan. […] The mixture is equilibrated for 10 minutes at 35° C and 0.1 ml of an 0.05 M maltose solution in 0.1 M sodium maleate buffer of pH 6.0, pre-warmed to 35° C, is then added. The mixture is incubated for 20 minutes at 35° C and the maltase reaction is stopped by addition of 1 ml of the glucose oxidase reagent described above, and the incubation is continued for a further 30 minutes at 35° C. Thereafter, 1 ml of 50% strength sulfuric acid is added and a measurement carried out at 545 nm against a corresponding blank.

[2] = target: T1, saccharase (Rattus norvegicus, UniProt P23739); test: In vivo saccharase inhibition (sucrose overfeeding test) in the fasting rat; details: for ED50: read-out: Saccharase Inhibition (ED50 mg/kg)
T1 construct: from tissue; host or cells: intestine of the living rat (endogenous enzyme)
Experimental: The produce an alimentary hyperglycemia and hyperinsulinaemia, groups of 6 fasting rats are given (a) 2.5 g of sucrose, (b) 2.5 g of maltose or (c) 1 g of boiled starch orally, in aqueous solution or suspension. Six other rats are given the same carbohydrates in the same amount and a glycoside hydrolase inhibitor in the amount indicated. In addition, six other rats are given an appropriate volume of saline. The blood glucose and the serum insulin are then measured at short intervals of time, in the blood from the retro-orbital venous plexus. Blood glucose determinations are carried out in the Auto-Analyser device (Technicon), according to Hoffmann: J. biol.

[3] = system: starch digestion; test: In vivo starch digestion inhibition (starch feeding test) in the fasting rat; details: for ED50: ED50, starch, fasting rat, Table VI; for in vivo inhibition of starch digestion, in words: compared with expectation from in vitro amylase inhibition
[4] = target: T2, saccharase (Sus scrofa, UniProt P56729); test: In vitro saccharase test; format: biochemical, pig; details: for Saccharase Inhibition: Table II; for Saccharase Inhibition In Vitro: Table IV; for saccharase inhibiting activity of isolated product: product of the Examples
T2 construct: sucrase subunit of the sucrase-isomaltase complex hydrolyses sucrose
Experimental: One saccharase inhibitor unit (SIU) is defined as the amount of inhibitor which inhibits two saccharase units to the extent of 50%. One saccharase unit (SU) is the amount of enzyme which under the test conditions specified splits 1 μmol of sucrose to glucose and fructose per minute. The μmols of glucose formed are determined quantitatively by means of the glucose oxidase reaction under conditions under which a further splitting of the sucrose by the saccharase no longer takes place. To carry out the test, 0.05 ml of solubilized saccharase [from the mucous membrane of the small intestine of the pig, according to B. Borgastrom, A. Dahlquist, Acta Chem. Scand. 12, (1958), page 1,997], diluted with 0.1 M sodium maleate buffer of pH 6.0 to a SU content adjusted to 0.12 SU is mixed with 0-20 μg of inhibitor or 0-20 μl of the solution to be tested and brought up to 0.1 ml with 0.1 M sodium maleate buffer of pH 6.0. The mixture is equilibrated for 10 minutes at 35° C and 0.1 ml of an 0.05 M sucrose solution in 0.1 M sodium maleate buffer of pH 6.0, pre-warmed to 35° C, is then added. The mixture is incubated for 20 minutes at 35° C, the saccharase reaction is stopped by addition of 1 ml of glucose oxidase reagent, and the incubation is continued for a further 30 minutes at 35° C. (The glucose oxidase reagent is prepared by dissolving 2 mg of glucose oxidase, Boehringer, No. 15,423, in 100 ml of 0.565 M tris-HCl buffer of pH 7.0 and subsequently adding 1 ml of detergent solution (2 g of Triton X 100 + 8 g of 95% strength and analytical grade ethanol), 1 ml of dianisidine solution (260 mg of o-dianisidine. 2HCl in 20 ml of H2 O) and 0.5 ml of 0.1% strength aqueous peroxidase solution, Boehringer, No. 15,302). Thereafter, 1 ml of 50% strength H2 SO4 is added and a measurement carried out at 545 nm against a corresponding blank. To evaluate the results, the percentage inhibition of the saccharase employed is calculated and converted to SIU/g of SIU/liter from the 50% inhibition point, using a glucose calibration curve.

[5] = 2.5 g sucrose + 100 SIU oral, 15 Min.
[6] = 2.5 g sucrose + 100 SIU oral, 30 Min.
[7] = 2.5 g sucrose + 100 SIU oral, 45 Min.
[8] = 1 g starch + 150 AIU oral, 5 Min.
[9] = 1 g starch + 150 AIU oral, 10 Min.
[10] = 1 g starch + 150 AIU oral, 15 Min.
[11] = 1 g starch + 150 AIU oral, 20 Min.
[12] = 1 g starch + 150 AIU oral, 30 Min.
[13] = 1 g starch + 150 AIU oral, 45 Min.
[14] = 1 g starch + 300 AIU oral, 5 Min.
[15] = 1 g starch + 300 AIU oral, 10 Min.
[16] = 1 g starch + 300 AIU oral, 15 Min.
[17] = 1 g starch + 300 AIU oral, 20 Min.
[18] = 1 g starch + 300 AIU oral, 30 Min.
[19] = 1 g starch + 300 AIU oral, 45 Min.

T2 sequence (P56729 with tags, fused parts or gaps): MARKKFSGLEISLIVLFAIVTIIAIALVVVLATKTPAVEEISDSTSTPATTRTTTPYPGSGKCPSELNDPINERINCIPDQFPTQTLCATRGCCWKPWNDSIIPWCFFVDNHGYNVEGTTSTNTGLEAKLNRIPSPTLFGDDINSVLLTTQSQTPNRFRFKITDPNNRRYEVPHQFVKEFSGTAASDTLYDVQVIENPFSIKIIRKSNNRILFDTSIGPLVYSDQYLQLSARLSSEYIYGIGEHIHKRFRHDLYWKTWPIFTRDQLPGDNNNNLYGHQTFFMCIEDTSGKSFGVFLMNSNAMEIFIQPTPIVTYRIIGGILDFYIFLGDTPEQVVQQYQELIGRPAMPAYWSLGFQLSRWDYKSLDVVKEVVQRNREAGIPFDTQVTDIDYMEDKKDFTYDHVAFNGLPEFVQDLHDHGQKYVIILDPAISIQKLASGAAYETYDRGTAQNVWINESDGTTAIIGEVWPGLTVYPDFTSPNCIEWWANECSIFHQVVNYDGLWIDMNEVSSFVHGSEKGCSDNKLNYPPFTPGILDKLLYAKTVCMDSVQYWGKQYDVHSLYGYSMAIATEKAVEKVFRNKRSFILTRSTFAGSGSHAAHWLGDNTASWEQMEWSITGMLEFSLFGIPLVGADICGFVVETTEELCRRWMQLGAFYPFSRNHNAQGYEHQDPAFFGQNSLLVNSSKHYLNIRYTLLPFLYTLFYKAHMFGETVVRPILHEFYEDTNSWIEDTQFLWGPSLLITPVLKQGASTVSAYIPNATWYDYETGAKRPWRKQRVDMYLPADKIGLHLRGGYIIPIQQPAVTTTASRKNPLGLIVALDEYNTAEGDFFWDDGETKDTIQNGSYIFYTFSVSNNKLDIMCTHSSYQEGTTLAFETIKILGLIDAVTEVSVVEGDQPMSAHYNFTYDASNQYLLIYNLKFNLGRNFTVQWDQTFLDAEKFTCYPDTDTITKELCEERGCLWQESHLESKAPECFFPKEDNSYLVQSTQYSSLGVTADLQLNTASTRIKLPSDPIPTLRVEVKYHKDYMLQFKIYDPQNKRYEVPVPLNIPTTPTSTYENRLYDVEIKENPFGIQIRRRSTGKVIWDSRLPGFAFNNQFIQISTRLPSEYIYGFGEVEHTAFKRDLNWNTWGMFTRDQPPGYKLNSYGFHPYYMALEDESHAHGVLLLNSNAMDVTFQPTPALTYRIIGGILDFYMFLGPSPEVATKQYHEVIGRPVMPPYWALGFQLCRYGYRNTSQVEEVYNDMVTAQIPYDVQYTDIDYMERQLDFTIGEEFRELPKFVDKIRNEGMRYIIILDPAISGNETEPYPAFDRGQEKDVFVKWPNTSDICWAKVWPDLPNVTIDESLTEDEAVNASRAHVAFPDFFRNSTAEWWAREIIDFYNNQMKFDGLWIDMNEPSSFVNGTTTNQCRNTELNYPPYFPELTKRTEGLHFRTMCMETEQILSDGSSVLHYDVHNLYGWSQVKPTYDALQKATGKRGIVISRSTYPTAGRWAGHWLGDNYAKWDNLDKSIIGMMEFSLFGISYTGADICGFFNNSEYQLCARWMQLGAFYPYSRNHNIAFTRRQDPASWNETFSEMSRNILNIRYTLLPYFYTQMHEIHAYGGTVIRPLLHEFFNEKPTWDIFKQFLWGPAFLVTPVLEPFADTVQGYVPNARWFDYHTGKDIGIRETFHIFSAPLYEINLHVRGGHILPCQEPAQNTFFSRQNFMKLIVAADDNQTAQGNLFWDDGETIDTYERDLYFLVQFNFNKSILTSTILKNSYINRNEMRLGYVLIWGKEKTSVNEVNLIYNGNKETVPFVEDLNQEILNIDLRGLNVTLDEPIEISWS
T1 sequence (P23739 1014-1841 limits assumed): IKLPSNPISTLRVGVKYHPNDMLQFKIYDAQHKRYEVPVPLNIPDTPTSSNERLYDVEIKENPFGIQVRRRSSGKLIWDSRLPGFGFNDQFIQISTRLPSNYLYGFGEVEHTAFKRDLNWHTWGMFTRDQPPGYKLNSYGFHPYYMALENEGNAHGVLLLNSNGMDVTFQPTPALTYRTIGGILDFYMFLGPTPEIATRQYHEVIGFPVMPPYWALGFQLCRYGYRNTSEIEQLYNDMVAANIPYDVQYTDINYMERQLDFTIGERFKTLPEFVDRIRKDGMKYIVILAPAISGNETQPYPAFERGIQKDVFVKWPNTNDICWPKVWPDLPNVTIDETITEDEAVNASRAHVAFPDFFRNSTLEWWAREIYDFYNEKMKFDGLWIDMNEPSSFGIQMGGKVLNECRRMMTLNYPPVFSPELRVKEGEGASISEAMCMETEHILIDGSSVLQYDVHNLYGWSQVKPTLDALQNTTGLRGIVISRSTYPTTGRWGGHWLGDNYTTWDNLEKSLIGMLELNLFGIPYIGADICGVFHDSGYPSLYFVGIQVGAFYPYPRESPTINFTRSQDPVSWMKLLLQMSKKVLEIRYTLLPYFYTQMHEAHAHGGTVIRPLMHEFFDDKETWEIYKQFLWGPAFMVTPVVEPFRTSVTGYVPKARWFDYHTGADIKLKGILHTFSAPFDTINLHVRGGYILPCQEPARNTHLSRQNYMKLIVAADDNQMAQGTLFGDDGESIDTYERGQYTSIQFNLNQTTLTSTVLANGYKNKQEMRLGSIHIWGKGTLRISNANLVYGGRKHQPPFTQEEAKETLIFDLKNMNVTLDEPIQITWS
T1 sequence (P23739 2-1013 partner limits assumed): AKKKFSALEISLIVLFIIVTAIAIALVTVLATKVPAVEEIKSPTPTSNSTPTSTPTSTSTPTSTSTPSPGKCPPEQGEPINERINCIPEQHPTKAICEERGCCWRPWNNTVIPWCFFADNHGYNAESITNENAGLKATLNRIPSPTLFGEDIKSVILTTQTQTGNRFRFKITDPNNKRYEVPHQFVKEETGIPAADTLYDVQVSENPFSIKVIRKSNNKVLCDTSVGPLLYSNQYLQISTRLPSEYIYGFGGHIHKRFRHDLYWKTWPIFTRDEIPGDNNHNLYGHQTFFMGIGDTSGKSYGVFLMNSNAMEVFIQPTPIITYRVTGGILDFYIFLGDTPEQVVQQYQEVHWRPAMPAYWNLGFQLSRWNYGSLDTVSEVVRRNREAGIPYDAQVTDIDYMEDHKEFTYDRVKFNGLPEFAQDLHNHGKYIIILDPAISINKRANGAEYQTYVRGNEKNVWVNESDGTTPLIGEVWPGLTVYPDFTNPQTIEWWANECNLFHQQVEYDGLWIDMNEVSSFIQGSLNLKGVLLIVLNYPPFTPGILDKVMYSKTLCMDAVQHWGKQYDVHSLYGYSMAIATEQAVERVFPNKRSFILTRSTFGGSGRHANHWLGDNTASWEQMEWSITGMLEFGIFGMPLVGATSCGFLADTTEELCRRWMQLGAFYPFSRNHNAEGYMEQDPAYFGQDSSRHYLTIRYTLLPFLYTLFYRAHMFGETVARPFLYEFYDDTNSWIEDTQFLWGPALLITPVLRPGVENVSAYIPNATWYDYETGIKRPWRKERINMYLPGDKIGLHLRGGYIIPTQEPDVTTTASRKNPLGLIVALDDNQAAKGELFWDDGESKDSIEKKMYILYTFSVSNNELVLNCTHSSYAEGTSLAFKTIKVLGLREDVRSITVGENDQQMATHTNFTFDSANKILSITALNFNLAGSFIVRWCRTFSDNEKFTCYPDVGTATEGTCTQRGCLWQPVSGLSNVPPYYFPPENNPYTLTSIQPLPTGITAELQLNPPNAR

SMILES | Maltase Inhibition [1] | Blood Glucose (Mean ± SD) [2, 5] | Blood Glucose (Mean ± SD) [2, 6] | Blood Glucose (Mean ± SD) [2, 7] | Blood Glucose (Mean ± SD) [3, 8] | Blood Glucose (Mean ± SD) [3, 9] | Blood Glucose (Mean ± SD) [3, 10] | Blood Glucose (Mean ± SD) [3, 11] | Blood Glucose (Mean ± SD) [3, 12] | Blood Glucose (Mean ± SD) [3, 13] | Blood Glucose (Mean ± SD) [3, 14] | Blood Glucose (Mean ± SD) [3, 15] | Blood Glucose (Mean ± SD) [3, 16] | Blood Glucose (Mean ± SD) [3, 17] | Blood Glucose (Mean ± SD) [3, 18] | Blood Glucose (Mean ± SD) [3, 19] | ED50 [3] | in vivo inhibition of starch digestion, in words [3] | Saccharase Inhibition ([4]; in vitro) | Saccharase Inhibition In Vitro ([4]; in vitro) | other results
C[C@H]1O[C@H](O[C@H]2[C@H](O)[C@@H](O)C(O)O[C@@H]2CO)[C@H](O)[C@@H](O)[C@@H]1N[C@H]1C=C(CO)[C@@H](O)[C@H](O)[C@H]1O (stereo partly drawn) [Formula IIB, O-{4,6-bisdesoxy-4-[1 S-(1,4,6/5)-4,5,6-trihydroxy-3-hydroxymethylcyclohex-2-en-1-ylamino]-α-D-glucopyranosyl}-(1→4)-D-glucopyranose] | 5,000 MIU/g | 89 ± 6.5 mg% | 111 ± 4.1 mg% | 116 ± 3.9 mg% | 98 ± 8.7 mg% | 116 ± 9.0 mg% | 128 ± 5.8 mg% | 127 ± 4.8 mg% | 115 ± 5.2 mg% | 137 ± 5.2 mg% | 87 ± 13 mg% | 106 ± 1.8 mg% | 110 ± 8.9 mg% | 111 ± 2.1 mg% | 108 ± 5.3 mg% | 121 ± 7.2 mg% | 0.76 mg/kg | much higher than would be expected | 30,000 SIU/g | 30 SIU/mg | Blood Glucose (Mean ± SD) ([2]; 2.5 g sucrose + 50 SIU oral, 15 Min.): 105 ± 11 mg%; Blood Glucose (Mean ± SD) ([2]; 2.5 g sucrose + 50 SIU oral, 30 Min.): 123 ± 5.2 mg%; Blood Glucose (Mean ± SD) ([2]; 2.5 g sucrose + 50 SIU oral, 45 Min.): 128 ± 11 mg%; Blood Glucose (Mean ± SD) ([2]; 2.5 g sucrose + 200 SIU oral, 15 Min.): 72 ± 4.6 mg%; Blood Glucose (Mean ± SD) ([2]; 2.5 g sucrose + 200 SIU oral, 30 Min.): 95 ± 9.1 mg%; Blood Glucose (Mean ± SD) ([2]; 2.5 g sucrose + 200 SIU oral, 45 Min.): 104 ± 9.6 mg%; ED50 ([2]; ED50, sucrose, fasting rat, Table IV, read-out: Saccharase Inhibition In Vitro (ED50 mg/kg)): 3 mg/kg; Blood Glucose (Mean ± SD) ([3]; 1 g starch + 75 AIU oral, 5 Min.): 102 ± 2.9 mg%; Blood Glucose (Mean ± SD) ([3]; 1 g starch + 75 AIU oral, 10 Min.): 130 ± 6.9 mg%; Blood Glucose (Mean ± SD) ([3]; 1 g starch + 75 AIU oral, 15 Min.): 128 ± 5.4 mg%; Blood Glucose (Mean ± SD) ([3]; 1 g starch + 75 AIU oral, 20 Min.): 143 ± 11 mg%; Blood Glucose (Mean ± SD) ([3]; 1 g starch + 75 AIU oral, 30 Min.): 125 ± 11 mg%; Blood Glucose (Mean ± SD) ([3]; 1 g starch + 75 AIU oral, 45 Min.): 132 ± 18 mg%; Saccharase inhibition relative to the derivative having two units ([4]; in vitro, in words): only half as much; saccharase inhibiting activity of isolated product ([4]; listed as one glucose unit): 30,000 SIU/g and 35,000 SIU/g
C[C@H]1O[C@H](O[C@H]2[C@H](O)[C@@H](O)[C@@H](O[C@H]3[C@H](O)[C@@H](O)C(O)O[C@@H]3CO)O[C@@H]2CO)[C@H](O)[C@@H](O)[C@@H]1N[C@H]1C=C(CO)[C@@H](O)[C@H](O)[C@H]1O (stereo partly drawn) [Formula IIIB, O-{4,6-bisdesoxy-4-[1 S-(1,4,6/5)-4,5,6-trihydroxy-3-hydroxymethylcyclohex-2-en-1-ylamino]-α-D-glucopyranosyl}-(1→4)-O-α-D-glucopyranosyl-(1→4)-D-glucopyranose] | 15,000 MIU/g | 58 ± 5.9 mg% | 92 ± 4.0 mg% | 98 ± 5.0 mg% | 82 ± 7.5 mg% | 105 ± 4.2 mg% | 120 ± 6.0 mg% | 124 ± 7.0 mg% | 134 ± 6.1 mg% | 125 ± 5.2 mg% | 79 ± 8.2 mg% | 97 ± 2.7 mg% | 105 ± 10 mg% | 118 ± 6.7 mg% | 119 ± 9.9 mg% | 130 ± 5.9 mg% | 1.6 mg/kg | much higher than would be expected | 68,000 SIU/g | 68 SIU/mg | Blood Glucose (Mean ± SD) ([2]; 2.5 g sucrose + 25 SIU oral, 15 Min.): 71 ± 3.7 mg%; Blood Glucose (Mean ± SD) ([2]; 2.5 g sucrose + 25 SIU oral, 30 Min.): 100 ± 7.3 mg%; Blood Glucose (Mean ± SD) ([2]; 2.5 g sucrose + 25 SIU oral, 45 Min.): 107 ± 2.4 mg%; ED50 ([2]; rat): 0.21 mg/kg; Blood Glucose (Mean ± SD) ([3]; 1 g starch + 600 AIU oral, 5 Min.): 70 ± 4.6 mg%; Blood Glucose (Mean ± SD) ([3]; 1 g starch + 600 AIU oral, 10 Min.): 80 ± 8.8 mg%; Blood Glucose (Mean ± SD) ([3]; 1 g starch + 600 AIU oral, 15 Min.): 94 ± 6.9 mg%; Blood Glucose (Mean ± SD) ([3]; 1 g starch + 600 AIU oral, 20 Min.): 91 ± 16 mg%; Blood Glucose (Mean ± SD) ([3]; 1 g starch + 600 AIU oral, 30 Min.): 103 ± 9.2 mg%; Blood Glucose (Mean ± SD) ([3]; 1 g starch + 600 AIU oral, 45 Min.): 102 ± 4.2 mg%; Blood Glucose (Mean ± SD) ([3]; 1 g starch + 1,200 AIU oral, 5 Min.): 70 ± 7.0 mg%; Blood Glucose (Mean ± SD) ([3]; 1 g starch + 1,200 AIU oral, 10 Min.): 84 ± 7.7 mg%; Blood Glucose (Mean ± SD) ([3]; 1 g starch + 1,200 AIU oral, 15 Min.): 88 ± 7.4 mg%; Blood Glucose (Mean ± SD) ([3]; 1 g starch + 1,200 AIU oral, 20 Min.): 97 ± 5.2 mg%; Blood Glucose (Mean ± SD) ([3]; 1 g starch + 1,200 AIU oral, 30 Min.): 97 mg%; Blood Glucose (Mean ± SD) ([3]; 1 g starch + 1,200 AIU oral, 45 Min.): 100 ± 4.3 mg%; Saccharase inhibition, in words ([4]; in vitro): most pronounced; saccharase inhibiting activity of isolated product ([4]; listed as 2 glucose units): 50,000 SIU/g and 60,000 SIU/g; saccharase inhibiting activity of isolated product ([4]; listed as 2 units): 68,000 SIU/g; saccharase inhibiting activity of isolated product ([4]; listed as two glucose units): 65,000 SIU/g
